Experimental data: patent publication US20240366560A1, “SMALL MOLECULE TREATMENT OF FATTY LIVER DISEASE AND HCC” (ScandiEdge Therapeutics AB, priority 2021, published 2024)

Columns and labels:
PKLR [1] = experiment: PKLR protein level by western blot in HepG2, 2-day drug treatment; assay type: cell-based; details: HepG2, two days of treatment, dosages per FIG. 5, P<0.05, FIG. 2A
Procedure: WT HepG2 was included in this study and cultured by Roswell Park Memorial Institute (RPMI, […], Sigma Aldrich) 1640 Medium with 10% fetal bovine serum (FBS) and 1% penicillin-streptomycin (PS). To induce a steatosis model into WT HepG2 cells, high glucose Dulbecco's Modified Eagle Media (DMEM, […]/[…], Sigma-Aldrich) containing 10% FBS and 1% PS was used as medium for one week, together with 10 μg/mL insulin and 10 μM T0901317. All of cells were incubated in the incubator with 5% CO2 and 37° C. (Thermo […]). Fresh medium was provided every two days. As for drug-screening, different numbers of HepG2 cells were seeded for distinct experiments. More in details, 40,000 cells and 500,000 cells were used for 2-day-drug treatment in 96-well-plate and 6-well plate, respectively, while 80,000 cells and 300,000 cells were used for one-week drug treatment in 96-well plate and 6-well plate, respectively. […] Fresh medium was provided every two days. Protein content levels were detected by western blot. After the respective treatment of drugs, the cell pellets were lysed in cell lytic M, followed by protein extraction from supernatant (10 min, 13,000r/min centrifuge). Extracted cell lysate was stored in -20° C. Proteins were quantified through Bovine albumin serum (BAS) standard curve with protein assay dye reagent (BIO-RAD). The proteins were separated by SDS-PAGE with 100v in 90 min by mini-protein TGX precast gels (4-15%, 15 wells, 15 μl/well, BIO-RAD), and then transfer to Mini PVDF transfer package through transfer system (Transfer-Turbo, BIO-RAD). After 30 min blocking with 5% skim milk in cold room (4° C.) and washing with TBST, membrane was cut by the size of interested proteins. Primary antibodies were added into the corresponding membrane sections for overnight binding. Then the membranes were washed with TBST, and the secondary antibodies were incubated for 1 h in cold room. The following antibody were used: (Goat pAb to Rb lg, ab205718, abcam; Rb pAb to beta-actin, ab8227, abcam; […]; Rb pAb to fatty acid synthase, ab99539, abcam). The bindings were imaged by immunostaining and machine (ImageQuant LAS 500). All antibodies were purchased from Abcam online, and βactin was used as global normalized protein. After measurement, the strength of signal for each protein was quantified by ImageJ. The background noise was removed, and all results were normalized by the levels of β-actin. To determine the inhibitory effects of these drugs on the expression level of PKLR, HepG2 was selected as the in vitro model for coherence. […] HepG2 cells were treated with these drugs for two days with different dosages due to their potential cellular toxicities (FIG. 5), and the PKLR protein level was the measured by western blotting. The level of protein expression of PKLR of the drug-treated groups was compared to that of the Ctrl group after normalizing with β-actin.

FASN [2] = experiment: FASN protein level by western blot in steatosis-induced HepG2, 7-day drug treatment; assay type: cell-based; details: steatosis-induced HepG2, 7 days of drug treatment, P<0.05, FIG. 2C
Procedure: (§1) WT HepG2 was included in this study and cultured by Roswell Park Memorial Institute (RPMI, R2405, Sigma Aldrich) 1640 Medium with 10% fetal bovine serum (FBS) and 1% penicillin-streptomycin (PS). To induce a steatosis model into WT HepG2 cells, high glucose Dulbecco's Modified Eagle Media (DMEM, D0822/D5671, Sigma-Aldrich) containing 10% FBS and 1% PS was used as medium for one week, together with 10 μg/mL insulin and 10 μM T0901317. All of cells were incubated in the incubator with 5% CO2 and 37° C. (Thermo SCIENTIFIC). Fresh medium was provided every two days.
(§2) As for drug-screening, different numbers of HepG2 cells were seeded for distinct experiments. More in details, 40,000 cells and 500,000 cells were used for 2-day-drug treatment in 96-well-plate and 6-well plate, respectively, while 80,000 cells and 300,000 cells were used for one-week drug treatment in 96-well plate and 6-well plate, respectively. Detailed drug dosages could be found in FIG. 5. Fresh medium was provided every two days.
(§3) Protein content levels were detected by western blot. After the respective treatment of drugs, the cell pellets were lysed in cell lytic M, followed by protein extraction from supernatant (10 min, 13,000r/min centrifuge). Extracted cell lysate was stored in −20° C. Proteins were quantified through Bovine albumin serum (BAS) standard curve with protein assay dye reagent (BIO-RAD). The proteins were separated by SDS-PAGE with 100v in 90 min by mini-protein TGX precast gels (4-15%, 15 wells, 15 μl/well, BIO-RAD), and then transfer to Mini PVDF transfer package through transfer system (Transfer-Turbo, BIO-RAD). After 30 min blocking with 5% skim milk in cold room (4° C.) and washing with TBST, membrane was cut by the size of interested proteins. Primary antibodies were added into the corresponding membrane sections for overnight binding. Then the membranes were washed with TBST, and the secondary antibodies were incubated for 1 h in cold room. The following antibody were used: (Goat pAb to Rb lg, ab205718, abcam; Rb pAb to beta-actin, ab8227, abcam; anti-pklr, HPA006653, SIGMA; Rb pAb to fatty acid synthase, ab99539, abcam). The bindings were imaged by immunostaining and machine (ImageQuant LAS 500). All antibodies were purchased from Abcam online, and βactin was used as global normalized protein. After measurement, the strength of signal for each protein was quantified by ImageJ. The background noise was removed, and all results were normalized by the levels of β-actin.
(§4) To further analyse the effect of these drugs on lipid accumulation via the DNL pathway, steatosis was induced to HepG2 by treating the cells with high glucose medium (DMEM), insulin and T0901317 (Hansmannel et al., 2006). […] Therefore, the effects of these two drugs on the de novo synthesis of lipids were investigated based on the steatosis-induced HepG2 model. […] Taken together, it was shown that BX-912 and JNK-IN-5A effectively alleviate the protein expression of PKLR and FASN as well as TG levels in HepG2 cell lines, and thus, it was decided to perform in vivo evaluations to test the effect of these two drugs.

PKLR [3] = experiment: PKLR protein level by western blot in steatosis-induced HepG2, 7-day drug treatment; assay type: cell-based; details: steatosis-induced HepG2, 7 days of drug treatment, P<0.05, FIG. 2B
Procedure: as §1, §2, §3, §4

FASN [4] = details: high-glucose-cultured HepG2 cell model (Hosseini et al., 2020); cited from earlier work
[5] = tested on: genes controlling fatty acid biosynthesis and Pcsk9; details: in vitro (Poirier et al., 2014); cited from earlier work

Compound | protein expression of PKLR vs Ctrl, normalized with β-actin (PKLR [1]) | protein expression level of FASN (FASN [2]) | protein expression level of PKLR (PKLR [3]) | expression level of Fasn (FASN [4]) | expression level of a list of genes controlling fatty acid biosynthesis and Pcsk9 [5]
O=C(NC(NC(=S)Nc1ccc(F)c([N+](=O)[O-])c1)C(Cl)(Cl)Cl)C(c1ccccc1)c1ccccc1 (stereo not drawn) [CGK-733] | significantly down-regulated |  |  |  | 
CCCS(=O)(=O)Nc1ccc(F)c(C(=O)c2c[nH]c3ncc(Cl)cc23)c1F [PLX-4720] | significantly down-regulated | significantly reduced | significantly decreased |  | 
Nc1ncn([C@@H]2O[C@H](CO)[C@@H](O)[C@H]2O)c(=O)n1 [Azacitidine] | significantly down-regulated | significantly reduced | significantly decreased | decreases | reduces
PF-477736 |  | significantly reduced | significantly decreased |  | 
CC(C)(C)c1nc(-c2cccc(NS(=O)(=O)c3c(F)cccc3F)c2F)c(-c2ccnc(N)n2)s1 [Dabrafenib] |  | significantly reduced | significantly decreased |  | 
N#CC(c1ccnc(NCCc2cccnc2)n1)c1nc2ccccc2s1 (stereo not drawn) [AS-601245] | significantly down-regulated |  | significantly decreased |  | 
